Measurements: patent US20120034613A1, “Apparatus and Method for Testing Relationships Between Gene Expression and Physical Appearance of Skin” (NSE Products, Inc., priority 2010, published 2012)

System: stratum corneum
Test: Corneometry, moisture content of the stratum corneum, 12 week clinical study
Type: in vivo, human
Conditions: Left Ocular Bone; for Corneometer Mean: Baseline mean 56.49
Source text: Corneometry measurements were taken on each subject's left ocular bone (in line with pupil) to measure the moisture content of the stratum corneum. All clinical and corneometer measurements and evaluations were taken at baseline, week 1 (visit 2), week 4 (visit 3), week 8 (visit 4) and week 12 (visit 5). Ultrasound and cutometer measurements and evaluations were taken at baseline, week 4 (visit 3), week 8 (visit 4) and week 12 (visit 5). Completed patient's diaries were reviewed for compliance at each visit. Mean clinical grading and instrumentation scores at each visit were statistically compared to baseline scores using paired t-test. Changes from baseline were considered significant at the p≦0.05 level. Mean percent change from baseline and incidence of positive responders were calculated for all attributes. Comparisons, based on the average from baseline, were made between the test materials using analysis of variance (ANOVA).

OCc1ccccc1O[C@@H]1O[C@H](CO)[C@@H](O)[C@H](O)[C@H]1O [Salicin, 2-(Hydroxymethyl)phenyl β-D-glucospyranoside]
Corneometer Mean (Week 1): 60.54 | Corneometer % Change (Week 1 vs Baseline): (7.3%) | Corneometer Mean (Week 4): 62.49 | Corneometer % Change (Week 4 vs Baseline): (10.6%) | Corneometer Mean (Week 8): 63.91 | Corneometer % Change (Week 8 vs Baseline): (13.1%) | Corneometer Mean (Week 12): 52.23 | Corneometer % Change (Week 12 vs Baseline): (−7.5%)
